Patent US11959094B2, “Methods and compositions for genome editing in non-dividing cells” (Salk Institute for Biological Studies, priority 2016, dated 2024)

Tested on: HEK293 GFP-correction line
Experiment: Targeted gene modification by HDR/HITI in HEK293 GFP-correction line
Assay type: cell-based
Conditions: NU7026 30 μM
Description: Generation of HEK293 GFP-correction line. To assess the efficiency of targeted gene modification by HDR and HITI in dividing cells, a mutated GFP gene-based reporter system was established in HEK293. Briefly, pEGIP*35 was co-transfected with pMDLg/pRRE, pRSV-Rev and pMD2.G, packaged and purified as lentiviral vectors according to a published protocol Kutner, R. H., Zhang, X.-Y. & Reiser, J. Production, concentration and titration of pseudotyped HIV-1-based lentiviral vectors. Nature Protocols 4, 495-505 (2009). HEK293 cells were transduced in suspension with lentiviral EGIP*35 vector and 4 μg/ml polybrene for 1 h. After brief centrifugation to remove any residual lentiviral vector, the cells were seeded in 100 mm dishes. Three days after transduction, puromycin (1-2 μg/ml; Invitrogen) was added to the medium. After 10 days, single colonies were individually picked up and expanded as HEK293 GFP-correction line.
Transfection of in vitro cultured cells. […]
Existing methods were improved for more robust NHEJ-based targeted knock-in. […] The efficiencies of targeted gene replacement via HDR and homology-independent targeted integration (HITI) were determined by GFP and mCherry signals respectively (FIG. 1A). […]

O=c1cc(N2CCOCC2)oc2c1ccc1ccccc12 [NU7026]
effect of NHEJ inhibitor on efficiency of HITI: significantly decreased
